Active and inactive are the calls of the source. The rule behind the calls is not given here.
Legend:
ACHN = test: Antiproliferative activity against human ACHN cells assessed as growth inhibition after 48 hrs by sulforhodamine B assay; type: functional
PC-3 = test: Antiproliferative activity against human PC3 cells assessed as growth inhibition after 48 hrs by sulforhodamine B assay; type: functional; conditions: PC-3, 48 h
Hs-578T = test: Antiproliferative activity against human Hs578T cells assessed as growth inhibition after 48 hrs by sulforhodamine B assay; type: functional
HT-29 = test: Antiproliferative activity against human HT-29 cells assessed as growth inhibition after 48 hrs by sulforhodamine B assay; type: functional; conditions: HT-29, 48 h
NCI-H460 = test: Antiproliferative activity against human NCI-H460 cells assessed as growth inhibition after 48 hrs by sulforhodamine B assay; type: functional; conditions: NCI-H460, 48 h
HCT-116 [1] = test: Antiproliferative activity against human HCT116 cells assessed as growth inhibition after 48 hrs by sulforhodamine B assay; type: functional; conditions: HCT-116, 48 h
SK-MEL-2 = test: Antiproliferative activity against human SK-MEL-2 cells assessed as growth inhibition after 48 hrs by sulforhodamine B assay; type: functional; conditions: SK-MEL-2, 48 h
OVCAR-8 = test: Antiproliferative activity against human OVCAR8 cells assessed as growth inhibition after 48 hrs by sulforhodamine B assay; type: functional; conditions: OVCAR-8, 48 h
SF-295 = test: Antiproliferative activity against human SF295 cells assessed as growth inhibition after 48 hrs by sulforhodamine B assay; type: functional; conditions: SF-295, 48 h
UO-31 = test: Antiproliferative activity against human UO31 cells assessed as growth inhibition after 48 hrs by sulforhodamine B assay; type: functional; conditions: UO-31, 48 h
[2] = Antioxidant activity assessed as ABTS radical scavenging activity by spectrophotometric analysis relative to control; type: functional; parameters: concentration or dose not given beside the values; conditions: dose or concentration not given here
U-251 = test: Antiproliferative activity against human U251 cells assessed as growth inhibition after 48 hrs by sulforhodamine B assay; type: functional; conditions: U-251, 48 h
NCI-H322M = test: Antiproliferative activity against human NCI-H322M cells assessed as growth inhibition after 48 hrs by sulforhodamine B assay; type: functional
NCI-H522 = test: Antiproliferative activity against human NCI-H522 cells assessed as growth inhibition after 48 hrs by sulforhodamine B assay; type: functional; conditions: NCI-H522, 48 h
OVCAR-3 = test: Antiproliferative activity against human OVCAR3 cells assessed as growth inhibition after 48 hrs by sulforhodamine B assay; type: functional; conditions: OVCAR-3, 48 h
K562 = test: Antiproliferative activity against human K562 cells assessed as growth inhibition after 48 hrs by sulforhodamine B assay; type: functional, cell-based; conditions: K562, 48 h, read-out: IC50
SF-268 = test: Antiproliferative activity against human SF268 cells assessed as growth inhibition after 48 hrs by sulforhodamine B assay; type: functional; conditions: SF-268, 48 h
[3] = Antioxidant activity assessed as ABTS radical scavenging activity by spectrophotometric method relative to ascorbic acid; type: functional
[4] = Pro-oxidant activity assessed as increase in bleomycin-Fe2+ induced calf thymus DNA damage at 2 mM after 1 hr by thiobarbituric acid based absorbance analysis
NCI-H226 = test: Antiproliferative activity against human NCI-H226 cells assessed as growth inhibition after 48 hrs by sulforhodamine B assay; type: functional; conditions: NCI-H226, 48 h
Malme-3M = test: Antiproliferative activity against human MALME-3M cells assessed as growth inhibition after 48 hrs by sulforhodamine B assay; type: functional
A498 = test: Antiproliferative activity against human A498 cells assessed as growth inhibition after 48 hrs by sulforhodamine B assay; type: functional; conditions: A498, 48 h
NCI/ADR-RES = test: Antiproliferative activity against human NCI-ADR-RES cells assessed as growth inhibition after 48 hrs by sulforhodamine B assay; type: functional
[5] = system: Panel NCI-60 (60 carcinoma cell lines); test: Antiproliferative activity against human NCI60 cells assessed as growth inhibition at 10 uM after 48 hrs by sulforhodamine B assay; type: functional; conditions: read-out: GI
HOP-62 = test: Antiproliferative activity against human HOP62 cells assessed as growth inhibition after 48 hrs by sulforhodamine B assay; type: functional; conditions: HOP-62, 48 h
UACC-62 = test: Antiproliferative activity against human UACC62 cells assessed as growth inhibition after 48 hrs by sulforhodamine B assay; type: functional; conditions: UACC-62, 48 h
OVCAR-4 = test: Antiproliferative activity against human OVCAR4 cells assessed as growth inhibition after 48 hrs by sulforhodamine B assay; type: functional; conditions: OVCAR-4, 48 h
HCT-116 [6] = test: […] in CDK1 mRNA expression in human HCT116 cells at 100 nM after 6 hrs hrs by SYBR green dye-based qRT-PCR analysis relative to control; type: functional
EKVX = test: Antiproliferative activity against human EKVX cells assessed as growth inhibition after 48 hrs by sulforhodamine B assay; type: functional
TK-10 = test: Antiproliferative activity against human TK10 cells assessed as growth inhibition after 48 hrs by sulforhodamine B assay; type: functional; conditions: TK-10, 48 h
SK-OV-3 = test: Antiproliferative activity against human SKOV3 cells assessed as growth inhibition after 48 hrs by sulforhodamine B assay; type: functional; conditions: SK-OV-3, 48 h
SW-620 = test: Antiproliferative activity against human SW620 cells assessed as growth inhibition after 48 hrs by sulforhodamine B assay; type: functional; conditions: SW-620, 48 h
Erythrocyte [7] = test: Haemolytic activity in human erythrocytes assessed as induction of hemolysis at 1.25 mM after 30 mins relative to H202; type: cell-based; conditions: erythrocyte, 0.5 h, 1250 µM
MCF7 = test: Antiproliferative activity against human MCF7 cells assessed as growth inhibition after 48 hrs by sulforhodamine B assay; type: functional; conditions: MCF7, 48 h
Erythrocyte [8] = test: Haemolytic activity in human erythrocytes assessed as induction of hemolysis at 0.625 mM after 30 mins relative to H202; type: cell-based; conditions: erythrocyte, 0.5 h, 625 µM
[9] = Antioxidant activity assessed as DPPH radical scavenging activity incubated in dark for 30 mins by spectrophotometric method relative to ascorbic acid; type: functional
MDA-MB-435 = test: Antiproliferative activity against human MDA-MB-435 cells assessed as growth inhibition after 48 hrs by sulforhodamine B assay; type: functional; conditions: MDA-MB-435, 48 h
CCRF-CEM = test: Antiproliferative activity against human CCRF-CEM cells assessed as growth inhibition after 48 hrs by sulforhodamine B assay; type: functional
[10] = Haemolytic activity in human erythrocytes assessed as induction of hemolysis at 10 mM after 30 mins relative to H202; type: cell-based, Erythrocyte; conditions: read-out: Activity
DU-145 = test: Antiproliferative activity against human DU145 cells assessed as growth inhibition after 48 hrs by sulforhodamine B assay; type: functional; conditions: DU-145, 48 h
SNB-75 = test: Antiproliferative activity against human SNB75 cells assessed as growth inhibition after 48 hrs by sulforhodamine B assay; type: functional; conditions: SNB-75, 48 h
COLO 205 = test: Antiproliferative activity against human COLO205 cells assessed as growth inhibition after 48 hrs by sulforhodamine B assay; type: functional; conditions: COLO 205, 48 h
RPMI-8226 = test: Antiproliferative activity against human RPMI8226 cells assessed as growth inhibition after 48 hrs by sulforhodamine B assay; type: functional; conditions: RPMI-8226, 48 h

With `N=C(N)c1ccc(-c2ccc(-c3ccc(F)cc3)o2)o1` the GI50 (ACHN) was 1600 nM, the GI50 (PC-3) was 1220 nM and the GI50 (Hs-578T) was 1950 nM. The GI50 (HT-29) was 610 nM, the GI50 (NCI-H460) was 1760 nM and the GI50 (HCT-116 [1]) was 1180 nM. The GI50 (SK-MEL-2) was 1760 nM, the GI50 (OVCAR-8) was 1980 nM and the GI50 (SF-295) was 1510 nM. It also gave a GI50 (UO-31) of 1430 nM, an inhibition [2] of 13.2% and a GI50 (U-251) of 1600 nM. The GI50 (NCI-H322M) was 1600 nM, the GI50 (NCI-H522) was 1360 nM and the GI50 (OVCAR-3) was 1840 nM. For the same molecule, the IC50 (K562) was 490 nM, the GI50 (SF-268) was 1920 nM and the fold change (FC) [3] was 0.1. For the same molecule, the Activity [4] was “Active”, the GI50 (NCI-H226) was 2820 nM and the GI50 (Malme-3M) was 1630 nM. The GI50 (A498) was 1900 nM, the GI50 (NCI/ADR-RES) was 1680 nM and the inhibition of growth at 10 µM [5] was 83.8%. The GI50 (HOP-62) was 1600 nM, the GI50 (UACC-62) was 1740 nM and the GI50 (OVCAR-4) was 1620 nM. The “fold change (FC)” value (HCT-116 [6]) was 1.07, the GI50 (EKVX) was 1350 nM and the GI50 (TK-10) was 1550 nM. For the same molecule, the GI50 (SK-OV-3) was 2320 nM, the GI50 (SW-620) was 940 nM and the Activity (Erythrocyte [7]) was “Non-Toxic”. The GI50 (MCF7) was 680 nM, the Activity (Erythrocyte [8]) was “Non-Toxic” and the fold change (FC) [9] was 0.1. For the same molecule, the GI50 (MDA-MB-435) was 350 nM, the GI50 (CCRF-CEM) was 1840 nM and the hemolysis at 0.5 h, 10000 µM [10] was 90%. It also gave a GI50 (DU-145) of 1800 nM, a GI50 (SNB-75) of 1550 nM and a GI50 (COLO 205) of 1600 nM. The GI50 (RPMI-8226) was 2480 nM.

For `N=C(N)c1ccc(-c2ccc(-c3ccc(F)cc3)s2)s1`, the GI50 (ACHN) was 1710 nM, the GI50 (PC-3) was 1770 nM and the GI50 (Hs-578T) was 2190 nM. It also gave a GI50 (HT-29) of 1530 nM, a GI50 (NCI-H460) of 1890 nM and a GI50 (HCT-116 [1]) of 1730 nM. It also gave a GI50 (SK-MEL-2) of 1810 nM, a GI50 (OVCAR-8) of 2230 nM and a GI50 (SF-295) of 1610 nM. The GI50 (UO-31) was 1770 nM, the inhibition [2] was 49.7% and the GI50 (U-251) was 1800 nM. The GI50 (NCI-H322M) was 1630 nM, the GI50 (NCI-H522) was 1820 nM and the GI50 (OVCAR-3) was 1780 nM. The IC50 (K562) was 1210 nM, the GI50 (SF-268) was 1690 nM and the fold change (FC) [3] was 0.5. For the same molecule, the Activity [4] was “Active”, the GI50 (NCI-H226) was 1420 nM and the GI50 (Malme-3M) was 1810 nM. The GI50 (A498) was 1950 nM, the GI50 (NCI/ADR-RES) was 1790 nM and the inhibition of growth at 10 µM [5] was -25.8%. It also gave a GI50 (HOP-62) of 1640 nM, a GI50 (UACC-62) of 1940 nM and a GI50 (OVCAR-4) of 1680 nM. For the same molecule, the “fold change (FC)” value (HCT-116 [6]) was 0.89, the GI50 (EKVX) was 1470 nM and the GI50 (TK-10) was 1720 nM. The GI50 (SK-OV-3) was 1800 nM, the GI50 (SW-620) was 1740 nM and the Activity (Erythrocyte [7]) was “Non-Toxic”. The GI50 (MCF7) was 1150 nM, the Activity (Erythrocyte [8]) was “Non-Toxic” and the fold change (FC) [9] was 0.5. For the same molecule, the GI50 (MDA-MB-435) was 1590 nM, the GI50 (CCRF-CEM) was 1850 nM and the hemolysis at 0.5 h, 10000 µM [10] was 93.3%. For the same molecule, the GI50 (DU-145) was 1720 nM, the GI50 (SNB-75) was 1480 nM and the GI50 (COLO 205) was 1320 nM. The GI50 (RPMI-8226) was 2100 nM.
